Test results from US12325697B2 (Nimbus Clio, Inc., priority 2021, dated 2025).

Key:
[1] = molecular target: Recombinant human Cbl-b (aa 36-427) (Homo sapiens (Human), UniProt Q13191); assay: Cbl-b Biochemical Assay (TR-FRET); conditions: read-out: TR-FRET hCbl-b IC50
Outline: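 Two-step TR-FRET: 6 nM biotinylated Cbl-b preincubated 30-60 min with compound, then 60 min at RT with 1-2.5 nM Src-Zap70 and 0.5 mM ATP in HEPES pH 7.0 buffer, 1% DMSO. Stopped with 5 mM EDTA plus 100 nM UBE2D2-Ub-FL-BODIPY and 1 nM streptavidin-Tb, 60 min; 520 nm signal; IC50 from 4-parameter fit.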

[2] = molecular target: Recombinant human c-Cbl (aa 47-435) (Homo sapiens (Human), UniProt P22681); assay: c-Cbl Biochemical Assay (TR-FRET)
Recombinant human c-Cbl (aa 47-435), sequence (P22681 47-435): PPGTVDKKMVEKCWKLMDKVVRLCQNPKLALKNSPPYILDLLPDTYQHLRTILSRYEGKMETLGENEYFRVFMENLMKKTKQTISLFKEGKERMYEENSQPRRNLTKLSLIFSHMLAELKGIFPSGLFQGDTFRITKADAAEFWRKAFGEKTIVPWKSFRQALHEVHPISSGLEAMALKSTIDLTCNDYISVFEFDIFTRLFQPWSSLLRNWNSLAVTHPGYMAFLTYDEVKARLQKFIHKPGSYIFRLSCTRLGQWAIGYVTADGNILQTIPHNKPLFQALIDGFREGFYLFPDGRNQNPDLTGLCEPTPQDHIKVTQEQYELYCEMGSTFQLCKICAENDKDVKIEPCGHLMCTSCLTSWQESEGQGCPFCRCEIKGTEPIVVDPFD
Outline: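 Biotinylated c-Cbl (6 nM) preincubated 30 min RT with compound, then reacted 60-90 min with Src-Zap70 (2.5-10 nM) and 0.5 mM ATP, pH 7.0 HEPES buffer. Stopped with EDTA; 100 nM Bodipy-ubiquitinated UBE2D2 binding read by TR-FRET after 60 min; IC50 from 4-parameter fit.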

Recombinant human Cbl-b (aa 36-427), sequence (Q13191 36-427): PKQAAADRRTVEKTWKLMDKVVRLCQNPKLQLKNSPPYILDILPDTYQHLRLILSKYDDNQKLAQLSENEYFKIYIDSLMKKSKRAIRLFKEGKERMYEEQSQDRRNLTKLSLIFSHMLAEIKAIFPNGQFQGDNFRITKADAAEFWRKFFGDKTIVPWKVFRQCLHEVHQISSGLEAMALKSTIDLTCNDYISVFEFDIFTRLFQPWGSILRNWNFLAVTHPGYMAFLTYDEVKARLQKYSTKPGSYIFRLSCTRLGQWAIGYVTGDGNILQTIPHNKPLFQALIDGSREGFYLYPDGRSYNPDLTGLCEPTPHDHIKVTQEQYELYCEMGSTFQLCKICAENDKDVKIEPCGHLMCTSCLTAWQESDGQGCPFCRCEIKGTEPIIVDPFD

Cn1cnnc1-c1cc(C#N)ccc1-c1cc(C2CC2)nc(N2Cc3ccc(CN[C@H]4CCOC4)cc3C2=O)c1 [ANQ-2, 4-[2-Cyclopropyl-6-(1-oxo-6-{[(3S)-oxolan-3-ylamino]methyl}-3H-isoindol-2-yl)pyridin-4-yl]-3-(4-methyl-1,2,4-triazol-3-yl)benzonitrile]
IC50 [1]: ≤ 200 nM
IC50 [2]: ≤ 200 nM

Cn1cnnc1-c1cc(F)ccc1-c1cc(C2CC2)nc(N2Cc3cc(Cl)c(CN[C@@H]4CCC[C@@H]4O)cc3C2=O)c1 [ANR-2, 5-Chloro-2-{6-cyclopropyl-4-[4-fluoro-2-(4-methyl-1,2,4-triazol-3-yl)phenyl]pyridin-2-yl}-6-({[(1R,2S)-2-hydroxycyclopentyl]amino}methyl)-3H-isoindol-1-one]
IC50 [1]: ≤ 200 nM
IC50 [2]: ≤ 200 nM

COCCN(C)Cc1cc(F)c2c(c1)C(=O)N(c1cc(-c3ccc(C#N)cc3-c3nncn3C)cc(C3CC3)n1)C2 [ANT-1, 4-[2-Cyclopropyl-6-(4-fluoro-6-{[(2-methoxyethyl)(methyl)amino]methyl}-1-oxo-3H-isoindol-2-yl)pyridin-4-yl]-3-(4-methyl-1,2,4-triazol-3-yl)benzonitrile]
IC50 [1]: ≤ 200 nM
IC50 [2]: ≤ 200 nM

Cn1cnnc1-c1cc(C#N)ccc1-c1cc(C2CC2)nc(N2Cc3c(F)cc(CN4C[C@]5(C)C[C@H]4CO5)cc3C2=O)c1 [ANU-3, 4-(2-cyclopropyl-6-(4-fluoro-6-(((1S,4S)-1-methyl-2-oxa-5-azabicyclo[2.2.1]heptan-5-yl)methyl)-1-oxoisoindolin-2-yl)pyridin-4-yl)-3-(4-methyl-4H-1,2,4-triazol-3-yl)benzonitrile]
IC50 [1]: ≤ 200 nM
IC50 [2]: ≤ 200 nM

Cn1cnnc1-c1cc(C#N)ccc1-c1cc(C2CC2)nc(N2Cc3c(F)cc(CN4C[C@@]5(C)C[C@@H]4CO5)cc3C2=O)c1 [ANV-1, 4-(2-Cyclopropyl-6-(4-fluoro-6-(((1R,4R)-1-methyl-2-oxa-5-azabicyclo[2.2.1]heptan-5-yl)methyl)-1-oxoisoindolin-2-yl)pyridin-4-yl)-3-(4-methyl-4H-1,2,4-triazol-3-yl)benzonitrile]
IC50 [1]: ≤ 200 nM
IC50 [2]: ≤ 200 nM

COCC(NCc1cc(F)c2c(c1)C(=O)N(c1cc(-c3ccc(C#N)cc3-c3nncn3C)cc(C3CC3)n1)C2)C(F)(F)F (stereo not drawn) [ANW-3, 4-[2-Cyclopropyl-6-(4-fluoro-1-oxo-6-{[(1,1,1-trifluoro-3-methoxypropan-2-yl)amino]methyl}-3H-isoindol-2-yl)pyridin-4-yl]-3-(4-methyl-1,2,4-triazol-3-yl)benzonitrile]
IC50 [1]: ≤ 200 nM
IC50 [2]: ≤ 200 nM

CN(Cc1ccc2c(c1)C(=O)N(c1cc(-c3ccc(C#N)cc3-c3nncn3C)cc(C3CC3)n1)C2)CC1COC1 [ANX-2, 4-[2-Cyclopropyl-6-(6-{[methyl(oxetan-3-ylmethyl)amino]methyl}-1-oxo-3H-isoindol-2-yl)pyridin-4-yl]-3-(4-methyl-1,2,4-triazol-3-yl)benzonitrile]
IC50 [1]: ≤ 200 nM
IC50 [2]: ≤ 200 nM

Cn1cnnc1-c1cc(C#N)ccc1-c1cc(C2CC2)nc(N2Cc3ccc(CNC[C@@H]4CCOC4)cc3C2=O)c1 [ANY-2, 4-{2-Cyclopropyl-6-[1-oxo-6-({[(3S)-oxolan-3-ylmethyl]amino}methyl)-3H-isoindol-2-yl]pyridin-4-yl}-3-(4-methyl-1,2,4-triazol-3-yl)benzonitrile]
IC50 [1]: ≤ 200 nM
IC50 [2]: ≤ 200 nM

Cn1cnnc1-c1cc(C#N)ccc1-c1cc(C2CC2)nc(N2Cc3ccc(CNC[C@H]4CCOC4)cc3C2=O)c1 [ANZ-2, 4-{2-Cyclopropyl-6-[1-oxo-6-({[(3R)-oxolan-3-ylmethyl]amino}methyl)-3H-isoindol-2-yl]pyridin-4-yl}-3-(4-methyl-1,2,4-triazol-3-yl)benzonitrile]
IC50 [1]: ≤ 200 nM
IC50 [2]: ≤ 200 nM

CN(Cc1ccc2c(c1)C(=O)N(c1cc(-c3ccc(C#N)cc3-c3nncn3C)cc(C3CC3)n1)C2)C1CCC1 [AOA-1]
IC50 [1]: ≤ 200 nM
IC50 [2]: ≤ 200 nM

C[C@H](NC1COC1)c1ccc2c(c1)C(=O)N(c1cc(-c3ccc(C#N)cc3-c3nncn3C)cc(C3CC3)n1)C2 [AOB-2, (S)-4-(2-Cyclopropyl-6-(6-(1-(oxetan-3-ylamino)ethyl)-1-oxoisoindolin-2-yl)pyridin-4-yl)-3-(4-methyl-4H-1,2,4-triazol-3-yl)benzonitrile]
IC50 [1]: ≤ 200 nM
IC50 [2]: ≤ 200 nM

C[C@@H](NC1COC1)c1ccc2c(c1)C(=O)N(c1cc(-c3ccc(C#N)cc3-c3nncn3C)cc(C3CC3)n1)C2 [AOC-2]
IC50 [1]: ≤ 200 nM
IC50 [2]: ≤ 200 nM

C[C@@H](c1ccc2c(c1)C(=O)N(c1cc(-c3ccc(C#N)cc3-c3nncn3C)cc(C3CC3)n1)C2)N1CC2(COC2)C1 [AOD-2, 4-(2-Cyclopropyl-6-{6-[(1S)-1-{2-oxa-6-azaspiro[3.3]heptan-6-yl}ethyl]-1-oxo-3H-isoindol-2-yl}pyridin-4-yl)-3-(4-methyl-1,2,4-triazol-3-yl)benzonitrile]
IC50 [1]: ≤ 200 nM
IC50 [2]: ≤ 200 nM

C[C@H](c1ccc2c(c1)C(=O)N(c1cc(-c3ccc(C#N)cc3-c3nncn3C)cc(C3CC3)n1)C2)N1CC2(COC2)C1 [AOE-1, 4-(2-Cyclopropyl-6-{6-[(1R)-1-{2-oxa-6-azaspiro[3.3]heptan-6-yl}ethyl]-1-oxo-3H-isoindol-2-yl}pyridin-4-yl)-3-(4-methyl-1,2,4-triazol-3-yl)benzonitrile]
IC50 [1]: ≤ 200 nM
IC50 [2]: ≤ 200 nM

Cn1cnnc1-c1cc(C#N)ccc1-c1cc(C2CC2)nc(N2Cc3ccc(C(C)(C)NC4CCC4)cc3C2=O)c1 [AOI-1, 4-(2-{6-[2-(Cyclobutylamino)propan-2-yl]-1-oxo-3H-isoindol-2-yl}-6-cyclopropylpyridin-4-yl)-3-(4-methyl-1,2,4-triazol-3-yl)benzonitrile]
IC50 [1]: ≤ 200 nM
IC50 [2]: ≤ 200 nM

C[C@@H](NCc1ccc2c(c1)C(=O)N(c1cc(-c3ccc(C#N)cc3-c3nncn3C)cc(C3CC3)n1)C2)C1CCC1 [AOJ-2, 4-{2-[6-({[(1R)-1-Cyclobutylethyl]amino}methyl)-1-oxo-3H-isoindol-2-yl]-6-cyclopropylpyridin-4-yl}-3-(4-methyl-1,2,4-triazol-3-yl)benzonitrile]
IC50 [1]: ≤ 200 nM
IC50 [2]: ≤ 200 nM

C[C@H](NCc1ccc2c(c1)C(=O)N(c1cc(-c3ccc(C#N)cc3-c3nncn3C)cc(C3CC3)n1)C2)C1CCC1 [AOK-2, 4-{2-[6-({[(1S)-1-Cyclobutylethyl]amino}methyl)-1-oxo-3H-isoindol-2-yl]-6-cyclopropylpyridin-4-yl}-3-(4-methyl-1,2,4-triazol-3-yl)benzonitrile]
IC50 [1]: ≤ 200 nM
IC50 [2]: ≤ 200 nM

Cn1cnnc1-c1cc(C#N)ccc1-c1cc(C2CC2)nc(N2Cc3ccc(CN4CC5(COC5)C4)cc3C2=O)c1 [AOL-1, 4-[2-Cyclopropyl-6-(6-{2-oxa-6-azaspiro[3.3]heptan-6-ylmethyl}-1-oxo-3H-isoindol-2-yl)pyridin-4-yl]-3-(4-methyl-1,2,4-triazol-3-yl)benzonitrile]
IC50 [1]: ≤ 200 nM
IC50 [2]: ≤ 200 nM

Cn1cnnc1-c1cc(C#N)ccc1-c1cc(C2CC2)nc(N2Cc3ccc(CNC(C)(C)C4CCC4)cc3C2=O)c1 [AOM-2, 4-[2-(6-{[(2-Cyclobutylpropan-2-yl)amino]methyl}-1-oxo-3H-isoindol-2-yl)-6-cyclopropylpyridin-4-yl]-3-(4-methyl-1,2,4-triazol-3-yl)benzonitrile]
IC50 [1]: ≤ 200 nM
IC50 [2]: ≤ 200 nM

CN(C)C(=O)CN(Cc1ccc2c(c1)C(=O)N(c1cc(-c3ccc(C#N)cc3-c3nncn3C)cc(C3CC3)n1)C2)CC1COC1 [AON-2, 2-{[(2-{4-[4-Cyano-2-(4-methyl-1,2,4-triazol-3-yl)phenyl]-6-cyclopropylpyridin-2-yl}-3-oxo-1H-isoindol-5-yl)methyl](oxetan-3-ylmethyl)amino}-N,N-dimethylacetamide]
IC50 [1]: ≤ 200 nM
IC50 [2]: ≤ 200 nM

Cn1cnnc1-c1cc(C#N)ccc1-c1cc(C2CC2)nc(N2Cc3ccc(CN4CCOC5(COC5)C4)cc3C2=O)c1 [AOO-2, 4-[2-Cyclopropyl-6-(6-{2,5-dioxa-8-azaspiro[3.5]nonan-8-ylmethyl}-1-oxo-3H-isoindol-2-yl)pyridin-4-yl]-3-(4-methyl-1,2,4-triazol-3-yl)benzonitrile]
IC50 [1]: ≤ 200 nM
IC50 [2]: ≤ 200 nM

Cn1cnnc1-c1cc(C#N)ccc1-c1cc(C2CC2)nc(N2Cc3ccc(C(C)(C)NCC4CCC4)cc3C2=O)c1 [AOS-2, 4-[2-(6-{2-[(Cyclobutylmethyl)amino]propan-2-yl}-1-oxo-3H-isoindol-2-yl)-6-cyclopropylpyridin-4-yl]-3-(4-methyl-1,2,4-triazol-3-yl)benzonitrile]
IC50 [1]: ≤ 200 nM
IC50 [2]: ≤ 200 nM

Cn1cnnc1-c1cc(C#N)ccc1-c1cc(C2CC2)nc(N2Cc3c(F)cc(CN4CC[C@@H]5COC[C@H]54)cc3C2=O)c1 [AOU-1, 4-(2-Cyclopropyl-6-(4-fluoro-6-(((3aS,6aS)-hexahydro-1H-furo[3,4-b]pyrrol-1-yl)methyl)-1-oxoisoindolin-2-yl)pyridin-4-yl)-3-(4-methyl-4H-1,2,4-triazol-3-yl)benzonitrile]
IC50 [1]: ≤ 200 nM
IC50 [2]: ≤ 200 nM

COC[C@H]1CCN1Cc1cc(F)c2c(c1)C(=O)N(c1cc(-c3ccc(C#N)cc3-c3nncn3C)cc(C3CC3)n1)C2 [AOW-2, 4-[2-Cyclopropyl-6-(4-fluoro-6-{[(2R)-2-(methoxymethyl)azetidin-1-yl]methyl}-1-oxo-3H-isoindol-2-yl)pyridin-4-yl]-3-(4-methyl-1,2,4-triazol-3-yl)benzonitrile]
IC50 [1]: ≤ 200 nM
IC50 [2]: ≤ 200 nM
